According to paper PMC6349845, “Overcoming NADPH product inhibition improves D-sorbitol conversion to L-sorbose” (Scientific Reports, 2019):

Assays:
GoSLDH [1] = target: T1, GoSLDH (Gluconobacter oxydans, UniProt Q9KWR5); experiment: isothermal titration calorimetry; format: binding
T1 construct: codon-optimised synthetic gene in pET28a, expressed in E. coli BL21-CodonPlus(DE3)-RIL, purified (His-tag vector)
T1 sequence (Q9KWR5 1-485): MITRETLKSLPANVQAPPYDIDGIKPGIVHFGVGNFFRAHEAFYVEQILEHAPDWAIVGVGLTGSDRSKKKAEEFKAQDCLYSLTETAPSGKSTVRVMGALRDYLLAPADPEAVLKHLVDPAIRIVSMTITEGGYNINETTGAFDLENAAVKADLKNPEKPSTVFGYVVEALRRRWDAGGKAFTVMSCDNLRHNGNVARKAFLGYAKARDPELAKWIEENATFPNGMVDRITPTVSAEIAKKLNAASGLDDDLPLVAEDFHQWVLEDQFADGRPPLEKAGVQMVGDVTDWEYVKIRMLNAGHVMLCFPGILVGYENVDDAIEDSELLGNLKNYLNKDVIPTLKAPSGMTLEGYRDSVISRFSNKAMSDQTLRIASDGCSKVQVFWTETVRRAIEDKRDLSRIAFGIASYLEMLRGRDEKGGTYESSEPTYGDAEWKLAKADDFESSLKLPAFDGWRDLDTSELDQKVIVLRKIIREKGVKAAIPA

GoSLDH [2] = target: T1, GoSLDH; experiment: steady-state inhibition kinetics, double-reciprocal plots; format: biochemical

Question: Which results are given for `NC(=O)C1=CN([C@@H]2O[C@H](COP(=O)(O)OP(=O)(O)OC[C@H]3O[C@@H](n4cnc5c(N)ncnc54)[C@H](OP(=O)(O)O)[C@@H]3O)[C@@H](O)[C@H]2O)C=CC1` [NADPH]?
Answer: Kd (GoSLDH [1]): 67.1 µM; Ki (GoSLDH [2]): 100 µM

Question: Which Kd (GoSLDH [1]) does the source give for `NC(=O)c1ccc[n+]([C@@H]2O[C@H](COP(=O)(O)OP(=O)(O)OC[C@H]3O[C@@H](n4cnc5c(N)ncnc54)[C@H](OP(=O)(O)O)[C@@H]3O)[C@@H](O)[C@H]2O)c1` [NADP^+] here?
Answer: The Kd was 89.3 µM.
